Source: PubChem BioAssay AID687022 (Broad Institute, 2013)
The source made the active and inactive calls.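 The calls were made as follows: active = Fitted curve of melting temperature shift crosses the 1.0 threshold at or below the sample's highest valid tested concentration; inconclusive = Flat fit with activity 30 to 70, or invalid fit; inactive = Opposite direction, flat within 30, or no crossing.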

molecular target: Fibroblast growth factor 22 (Homo sapiens) (UniProt Q9HCT0); test: FGF22 ligand-induced thermal stabilization – biophysical, thermal shift, cherry-pick, FGF22 synaptogenesis inhibitor project, dose response (AID 687022); conditions: recombinant FGF22 thermal shift, SYPRO orange melting
Sequence (Q9HCT0 whole entry, looked up): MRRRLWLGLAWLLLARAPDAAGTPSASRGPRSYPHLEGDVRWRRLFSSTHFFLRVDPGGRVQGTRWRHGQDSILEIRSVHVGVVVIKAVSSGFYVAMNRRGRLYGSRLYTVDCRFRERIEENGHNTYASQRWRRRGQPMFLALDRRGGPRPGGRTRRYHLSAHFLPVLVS

Structure (SMILES)	AbsAC1 (concentration giving Tm-shift threshold 1.0)
O=c1c2ccccc2[nH]c2ccc(F)cc12	> 38 µM (inactive)
COc1ccc(C(=O)Nc2nc(CC(=O)NCCc3ccccc3)cs2)cc1	11.3 µM
O=C(O)c1ccccc1NS(=O)(=O)c1ccc2ccccc2c1	4.33 µM
Cc1ccccc1S(=O)(=O)NCC[C@@H]1CC[C@@H](NC(=O)Nc2cccc(Cl)c2)[C@@H](CO)O1	8.07 µM
CC(C)c1c(C(=O)N/N=C/c2c[nH]c3ccccc23)nnn1-c1nonc1N	1.67 µM
Cn1cc([N+](=O)[O-])c(C(=O)Nc2ccc3nc(-c4ccccc4)[nH]c3c2)n1	16 µM
O=C(O)c1cccc(NS(=O)(=O)c2ccc(-c3ccc(S(=O)(=O)Nc4cccc(C(=O)O)c4)cc3)cc2)c1	1.2 µM
Cc1cc(NC(=O)Nc2ccc3c(ccn3C)c2)sn1	3.42 µM
Cc1cc(C)n(-c2ccc(C(=O)Nc3ccc(S(=O)(=O)N(C)C)cc3)cc2)n1	9.32 µM
Cc1[nH]c2ccccc2c1C(=O)NS(=O)(=O)Nc1ccc(Cl)cc1	3.06 µM
C/C=C/c1ccc2c(c1)O[C@@H](CN(C)C(=O)Nc1ccc(F)cc1)[C@@H](C)CN([C@H](C)CO)S2(=O)=O	14.8 µM
O=C(O)c1ccccc1Nc1ccc([N+](=O)[O-])cc1	16.2 µM
C[C@H](CO)N1C[C@H](C)[C@@H](CN(C)C(=O)C2CC2)OCc2ccccc2-c2ccccc2C1=O	35.4 µM
COc1cc(OC)cc(C(=O)Nc2ccc(S(=O)(=O)Nc3nc(C)cc(C)n3)cc2)c1	15.5 µM

Next, values leading:

AbsAC1 (concentration giving Tm-shift threshold 1.0)	Structure (SMILES)
9.23 µM	O=C(Nc1nc(-c2ccccn2)cs1)c1cccc(S(=O)(=O)N2CCOCC2)c1
22.1 µM	C[C@@H]1CN([C@H](C)CO)S(=O)(=O)c2ccc(-c3ccc(F)cc3)cc2O[C@@H]1CN(C)C(=O)Nc1ccccc1F
6.84 µM	CCOc1cc(C=NNC(=O)c2cccc(S(=O)(=O)N3CCCC3)c2)ccc1O
3.46 µM	Nc1nonc1-n1nnc(C(=O)N/N=C/c2cccnc2)c1CSc1ccc(Cl)cc1
9.92 µM	O=C(CCNC(=O)c1ccccc1Cl)Nc1nc2ccc(F)cc2s1
9.79 µM	Cc1[nH]c2ccccc2c1/C=N/NC(=O)c1cccc(F)c1
10.3 µM	CO[C@@H](CN(C)S(=O)(=O)c1cccc(Cl)c1)[C@@H](C)CN([C@H](C)CO)S(=O)(=O)c1cccc(Cl)c1
32 µM	COc1ccccc1NC(=O)N[C@@H]1CC[C@H](CCn2cc(-c3ccccc3OC)nn2)O[C@@H]1CO
2.76 µM	COc1ccc(NC(=O)COC(=O)Cc2c[nH]c3ccccc23)cc1Cl
3.53 µM	O=C(C[C@@H]1CC[C@H]2[C@@H](COC[C@@H](O)CN2S(=O)(=O)c2cccc(F)c2)O1)Nc1ccccc1
4.31 µM	COc1ccccc1NS(=O)(=O)c1cc(C(=O)Nc2ccc(S(=O)(=O)Nc3onc(C)c3C)cc2)ccc1C
5.8 µM	COc1cc(NC(=O)C2CCC(CNS(=O)(=O)c3csc(C(N)=O)c3)CC2)cc(OC)c1 (configuration not stated)
6.07 µM	O=C(N/N=C/c1ccncc1)c1cc2ccccc2o1
6.74 µM	O=C(O)Cn1cc(/C=N/NC(=O)c2cc3cc(Br)ccc3o2)c2ccccc21
> 10 µM (inactive)	CC1(C(=O)NS(=O)(=O)c2ccc(Cl)cc2)CCN1C(=O)Cc1ccc(Cl)cc1Cl (configuration not stated)
11.3 µM	COc1ccc2cc(CCNC(=O)c3cc4ccccc4o3)c(=O)[nH]c2c1
4.05 µM	CCN1C(=O)C(CC(=O)Nc2ccc(OC)cc2)N(Cc2ccc3c(c2)OCO3)C1=S (configuration not stated)
5.57 µM	O=C(Nc1ccc(C(=O)O)cc1)Nc1ccc([N+](=O)[O-])cc1
